{
  "source": "the supplement of paper PMC10307832",
  "data": [
    {"compound": "O=C(/C=C/c1cccnc1)NCCCCC1CCN(C(=O)c2ccccc2)CC1 [Daporinad] + CC(C)C[C@H](NC(=O)[C@H](Cc1ccccc1)NC(=O)c1cnccn1)B(O)O [Bortezomib] (partner 0.002 µM)", "assay": "relative viability (nuclei count vs DMSO), 5 days (fraction); higher = more cells survive", "settings": "first compound 0.0005 µM", "method_in_brief": "(§1)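 Cells from lung cancer lines were seeded into 1536-well plates and, one day later, dosed by pin tool. Treatments were either a single drug or a fixed dose of an anchor drug with five library-drug doses (not always all listed) in √10 steps. After 5 days, nuclei were stained in a one-step fixation (final 0.05% Triton X-100, 1% formaldehyde, 1 ug/ml Hoechst) and counted on 4× images, and relative viability is the treated-to-vehicle nuclei ratio, as the median of duplicate plates.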", "values": [
      {"cell line": "HCC-78", "relative viability": 0.367},
      {"cell line": "NCI-H322M", "relative viability": 1.24},
      {"cell line": "LCLC-97TM1", "relative viability": 0.302},
      {"cell line": "NCI-H2009", "relative viability": 0.887},
      {"cell line": "A-427", "relative viability": 0.952},
      {"cell line": "NCI-H460", "relative viability": 1.1},
      {"cell line": "NCI-H1734", "relative viability": 0.937},
      {"cell line": "NCI-H520", "relative viability": 0.624},
      {"cell line": "NCI-H2347", "relative viability": 1.15},
      {"cell line": "SW 1573", "relative viability": 1.12},
      {"cell line": "201T", "relative viability": 1.08},
      {"cell line": "NCI-H1915", "relative viability": 0.987},
      {"cell line": "HCC-827", "relative viability": 1.06},
      {"cell line": "LXF-289", "relative viability": 0.965},
      {"cell line": "NCI-H23", "relative viability": 1.18},
      {"cell line": "NCI-H650", "relative viability": 0.622},
      {"cell line": "CAL-12T", "relative viability": 0.925},
      {"cell line": "NCI-H1651", "relative viability": 0.953},
      {"cell line": "EPLC-272H", "relative viability": 0.86},
      {"cell line": "NCI-H2228", "relative viability": 0.788},
      {"cell line": "NCI-H1355", "relative viability": 1.16},
      {"cell line": "NCI-H3122", "relative viability": 1.02},
      {"cell line": "NCI-H1437", "relative viability": 0.414},
      {"cell line": "NCI-H1755", "relative viability": 0.928},
      {"cell line": "NCI-H2023", "relative viability": 1.01},
      {"cell line": "HCC-15", "relative viability": 0.989},
      {"cell line": "PC-3 [JPC-3]", "relative viability": 0.85},
      {"cell line": "EKVX", "relative viability": 0.939},
      {"cell line": "LC-2-ad", "relative viability": 0.978},
      {"cell line": "NCI-H1975", "relative viability": 0.397},
      {"cell line": "SK-LU-1", "relative viability": 0.921},
      {"cell line": "NCI-H661", "relative viability": 0.941},
      {"cell line": "RERF-LC-KJ", "relative viability": 0.996}
    ]},
    {"compound": "O=C(/C=C/c1cccnc1)NCCCCC1CCN(C(=O)c2ccccc2)CC1 [Daporinad] + CC(C)C[C@H](NC(=O)[C@H](Cc1ccccc1)NC(=O)c1cnccn1)B(O)O [Bortezomib] (partner 0.002 µM)", "assay": "relative viability (nuclei count vs DMSO), 5 days (fraction); higher = more cells survive", "settings": "first compound 0.001581 µM", "method_in_brief": "as §1", "values": [
      {"cell line": "HCC-78", "relative viability": 0.502},
      {"cell line": "NCI-H322M", "relative viability": 1.37},
      {"cell line": "LCLC-97TM1", "relative viability": 0.604},
      {"cell line": "NCI-H2009", "relative viability": 1.09},
      {"cell line": "A-427", "relative viability": 1.02},
      {"cell line": "NCI-H460", "relative viability": 1.17},
      {"cell line": "NCI-H1734", "relative viability": 0.967},
      {"cell line": "NCI-H520", "relative viability": 0.686},
      {"cell line": "NCI-H2347", "relative viability": 1.03},
      {"cell line": "SW 1573", "relative viability": 0.769},
      {"cell line": "201T", "relative viability": 1.11},
      {"cell line": "NCI-H1915", "relative viability": 1.05},
      {"cell line": "HCC-827", "relative viability": 0.965},
      {"cell line": "LXF-289", "relative viability": 1.08},
      {"cell line": "NCI-H23", "relative viability": 0.919},
      {"cell line": "NCI-H650", "relative viability": 0.817},
      {"cell line": "NCI-H1651", "relative viability": 0.952},
      {"cell line": "EPLC-272H", "relative viability": 1.04},
      {"cell line": "NCI-H2228", "relative viability": 1.2},
      {"cell line": "NCI-H1355", "relative viability": 1.2},
      {"cell line": "NCI-H3122", "relative viability": 1.01},
      {"cell line": "NCI-H1437", "relative viability": 0.629},
      {"cell line": "NCI-H1755", "relative viability": 0.969},
      {"cell line": "NCI-H2023", "relative viability": 1.1},
      {"cell line": "HCC-15", "relative viability": 1.13},
      {"cell line": "PC-3 [JPC-3]", "relative viability": 0.864},
      {"cell line": "EKVX", "relative viability": 1.16},
      {"cell line": "LC-2-ad", "relative viability": 1.07},
      {"cell line": "NCI-H1975", "relative viability": 0.395},
      {"cell line": "SK-LU-1", "relative viability": 1.34},
      {"cell line": "NCI-H661", "relative viability": 0.867},
      {"cell line": "RERF-LC-KJ", "relative viability": 1.05}
    ]},
    {"compound": "O=C(/C=C/c1cccnc1)NCCCCC1CCN(C(=O)c2ccccc2)CC1 [Daporinad] + CC(C)C[C@H](NC(=O)[C@H](Cc1ccccc1)NC(=O)c1cnccn1)B(O)O [Bortezomib] (partner 0.002 µM)", "assay": "relative viability (nuclei count vs DMSO), 5 days (fraction); higher = more cells survive", "settings": "first compound 0.005 µM", "method_in_brief": "as §1", "values": [
      {"cell line": "HCC-78", "relative viability": 0.345},
      {"cell line": "NCI-H322M", "relative viability": 1.04},
      {"cell line": "LCLC-97TM1", "relative viability": 0.657},
      {"cell line": "NCI-H2009", "relative viability": 1.06},
      {"cell line": "A-427", "relative viability": 0.974},
      {"cell line": "NCI-H460", "relative viability": 1.05},
      {"cell line": "NCI-H1734", "relative viability": 0.888},
      {"cell line": "NCI-H520", "relative viability": 0.223},
      {"cell line": "NCI-H2347", "relative viability": 0.922},
      {"cell line": "SW 1573", "relative viability": 1.05},
      {"cell line": "201T", "relative viability": 1.07},
      {"cell line": "NCI-H1915", "relative viability": 0.961},
      {"cell line": "HCC-827", "relative viability": 1.14},
      {"cell line": "LXF-289", "relative viability": 1.05},
      {"cell line": "NCI-H23", "relative viability": 0.888},
      {"cell line": "NCI-H650", "relative viability": 0.669},
      {"cell line": "CAL-12T", "relative viability": 0.817},
      {"cell line": "NCI-H1651", "relative viability": 1.01},
      {"cell line": "EPLC-272H", "relative viability": 0.98},
      {"cell line": "NCI-H2228", "relative viability": 1.12},
      {"cell line": "NCI-H1355", "relative viability": 1.35},
      {"cell line": "NCI-H3122", "relative viability": 1.02},
      {"cell line": "NCI-H1437", "relative viability": 0.561},
      {"cell line": "NCI-H1755", "relative viability": 0.935},
      {"cell line": "NCI-H2023", "relative viability": 1.04},
      {"cell line": "HCC-15", "relative viability": 1.07},
      {"cell line": "PC-3 [JPC-3]", "relative viability": 0.844},
      {"cell line": "EKVX", "relative viability": 1.12},
      {"cell line": "LC-2-ad", "relative viability": 0.952},
      {"cell line": "NCI-H1975", "relative viability": 0.332},
      {"cell line": "SK-LU-1", "relative viability": 1.16},
      {"cell line": "NCI-H661", "relative viability": 0.659},
      {"cell line": "RERF-LC-KJ", "relative viability": 1.45}
    ]},
    {"compound": "O=C(/C=C/c1cccnc1)NCCCCC1CCN(C(=O)c2ccccc2)CC1 [Daporinad] + CC(C)C[C@H](NC(=O)[C@H](Cc1ccccc1)NC(=O)c1cnccn1)B(O)O [Bortezomib] (partner 0.002 µM)", "assay": "relative viability (nuclei count vs DMSO), 5 days (fraction); higher = more cells survive", "settings": "first compound 0.01581 µM", "method_in_brief": "as §1", "values": [
      {"cell line": "HCC-78", "relative viability": 0.642},
      {"cell line": "NCI-H322M", "relative viability": 0.625},
      {"cell line": "LCLC-97TM1", "relative viability": 0.533},
      {"cell line": "NCI-H2009", "relative viability": 0.846},
      {"cell line": "A-427", "relative viability": 0.784},
      {"cell line": "NCI-H460", "relative viability": 1.05},
      {"cell line": "NCI-H1734", "relative viability": 0.333},
      {"cell line": "NCI-H520", "relative viability": 0.151},
      {"cell line": "NCI-H2347", "relative viability": 1.41},
      {"cell line": "SW 1573", "relative viability": 0.714},
      {"cell line": "201T", "relative viability": 1.11},
      {"cell line": "NCI-H1915", "relative viability": 0.883},
      {"cell line": "HCC-827", "relative viability": 1.13},
      {"cell line": "LXF-289", "relative viability": 1.07},
      {"cell line": "NCI-H23", "relative viability": 0.427},
      {"cell line": "NCI-H650", "relative viability": 0.833},
      {"cell line": "CAL-12T", "relative viability": 0.392},
      {"cell line": "NCI-H1651", "relative viability": 0.788},
      {"cell line": "EPLC-272H", "relative viability": 1.14},
      {"cell line": "NCI-H2228", "relative viability": 1.11},
      {"cell line": "NCI-H1355", "relative viability": 1.07},
      {"cell line": "NCI-H3122", "relative viability": 1.05},
      {"cell line": "NCI-H1437", "relative viability": 0.554},
      {"cell line": "NCI-H1755", "relative viability": 0.971},
      {"cell line": "NCI-H2023", "relative viability": 0.972},
      {"cell line": "HCC-15", "relative viability": 1.04},
      {"cell line": "PC-3 [JPC-3]", "relative viability": 0.827},
      {"cell line": "EKVX", "relative viability": 1.12},
      {"cell line": "LC-2-ad", "relative viability": 0.844},
      {"cell line": "NCI-H1975", "relative viability": 0.402},
      {"cell line": "SK-LU-1", "relative viability": 1.61},
      {"cell line": "NCI-H661", "relative viability": 0.477},
      {"cell line": "RERF-LC-KJ", "relative viability": 1.26}
    ]},
    {"compound": "O=C(/C=C/c1cccnc1)NCCCCC1CCN(C(=O)c2ccccc2)CC1 [Daporinad] + Cc1nc(Nc2ncc(C(=O)Nc3c(C)cccc3Cl)s2)cc(N2CCN(CCO)CC2)n1 [Dasatinib] (partner 0.075 µM)", "assay": "relative viability (nuclei count vs DMSO), 5 days (fraction); higher = more cells survive", "settings": "first compound 0.0005 µM", "method_in_brief": "as §1", "values": [
      {"cell line": "HCC-78", "relative viability": 0.363},
      {"cell line": "NCI-H322M", "relative viability": 0.272},
      {"cell line": "LCLC-97TM1", "relative viability": 0.77},
      {"cell line": "NCI-H2009", "relative viability": 0.295},
      {"cell line": "A-427", "relative viability": 0.613},
      {"cell line": "NCI-H460", "relative viability": 0.575},
      {"cell line": "NCI-H1734", "relative viability": 0.566},
      {"cell line": "NCI-H520", "relative viability": 0.248}
    ]}
  ]
}
